Measurements published in the supplement of paper PMC11208160.

Test: recombinant barcode read abundance after kanamycin selection (control-corrected) (log10(CPM+1)); higher = more efficient recombination; sequences stand for … in AGTGCAGAGAAAATCGGCCAGTTTTCTCTGCCTGCAGTCCGCATGCCGT…ATTTATGCAGCGGACTGCCTTTCTCCCAAAGTGATAAACCGGACAGTATCATGGACCGGTTTTCCCGGTAATCCGTATTTGCAAGGTTGGTTTCACT; site = the 11-nt target
Procedure: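 Same pooled E. coli target screen (IS621 bridge recombinase, kanamycin selection, control-corrected CPM, mean of 2 biological replicates). Here the two core-binding nucleotides of the LTG and RTG of the bridge RNA target-binding loop are mutated. Target and donor CT cores are held constant, and the other 9 guide positions match the target. The target is read from the library oligo sequence. Molecule = full bridge RNA written as DNA: nt 1-80 from the library oligo, rest WT scaffold.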
With “AAACACATATGGGTTCTAACCTGTTGCCTTA [AAACACACTAG_LTGcore_TA_RTGcore_TA] (site AAACACACTAG) (LTG core: TA, RTG core: TA)” the “recombinant barcode read abundance (log10)” value was 0.146.
For “AAACAGTACTGGGTTCTAACCTGTTGCCTGT [AAACAGTCTAG_LTGcore_AC_RTGcore_AC] (site AAACAGTCTAG) (LTG core: AC, RTG core: AC)”, the “recombinant barcode read abundance (log10)” value was 0.114.
With “AAACAGTAGTGGGTTCTAACCTGTTGCCTAG [AAACAGTCTAG_LTGcore_AG_RTGcore_CT] (site AAACAGTCTAG) (LTG core: AG, RTG core: CT)” the “recombinant barcode read abundance (log10)” value was 0.0711.
With “AAACAGTCTTGGGTTCTAACCTGTTGCCTCA [AAACAGTCTAG_LTGcore_CT_RTGcore_TG] (site AAACAGTCTAG) (LTG core: CT, RTG core: TG)” the “recombinant barcode read abundance (log10)” value was 0.601.
For “AAACAGTCTTGGGTTCTAACCTGTTGCCTGC [AAACAGTCTAG_LTGcore_CT_RTGcore_GC] (site AAACAGTCTAG) (LTG core: CT, RTG core: GC)”, the “recombinant barcode read abundance (log10)” value was 1.44.
For “AAACAGTCTTGGGTTCTAACCTGTTGCCTTG [AAACAGTCTAG_LTGcore_CT_RTGcore_CA] (site AAACAGTCTAG) (LTG core: CT, RTG core: CA)”, the “recombinant barcode read abundance (log10)” value was 1.28.
In the case of “AAACAGTTCTGGGTTCTAACCTGTTGCCTAG [AAACAGTCTAG_LTGcore_TC_RTGcore_CT] (site AAACAGTCTAG) (LTG core: TC, RTG core: CT)”, the “recombinant barcode read abundance (log10)” value was 0.0714.
With “AAACATGCGTGGGTTCTAACCTGTTGCCTAG [AAACATGCTAG_LTGcore_CG_RTGcore_CT] (site AAACATGCTAG) (LTG core: CG, RTG core: CT)” the “recombinant barcode read abundance (log10)” value was 0.0702.
With “AAACATGCTTGGGTTCTAACCTGTTGCCTAA [AAACATGCTAG_LTGcore_CT_RTGcore_TT] (site AAACATGCTAG) (LTG core: CT, RTG core: TT)” the “recombinant barcode read abundance (log10)” value was 0.344.
With “AAACATGCTTGGGTTCTAACCTGTTGCCTCC [AAACATGCTAG_LTGcore_CT_RTGcore_GG] (site AAACATGCTAG) (LTG core: CT, RTG core: GG)” the “recombinant barcode read abundance (log10)” value was 0.177.
With “AAACATGCTTGGGTTCTAACCTGTTGCCTGG [AAACATGCTAG_LTGcore_CT_RTGcore_CC] (site AAACATGCTAG) (LTG core: CT, RTG core: CC)” the “recombinant barcode read abundance (log10)” value was 0.713.
With “AAACATGGATGGGTTCTAACCTGTTGCCTAG [AAACATGCTAG_LTGcore_GA_RTGcore_CT] (site AAACATGCTAG) (LTG core: GA, RTG core: CT)” the “recombinant barcode read abundance (log10)” value was 0.0906.
With “AAACATGTATGGGTTCTAACCTGTTGCCTTA [AAACATGCTAG_LTGcore_TA_RTGcore_TA] (site AAACATGCTAG) (LTG core: TA, RTG core: TA)” the “recombinant barcode read abundance (log10)” value was 0.0913.
In the case of “ACGGGACATTGGGTTCTAACCTGTTGCAGAT [ACGGGACCTCT_LTGcore_AT_RTGcore_AT] (site ACGGGACCTCT) (LTG core: AT, RTG core: AT)”, the “recombinant barcode read abundance (log10)” value was 0.134.
In the case of “ACGGGACCGTGGGTTCTAACCTGTTGCAGCG [ACGGGACCTCT_LTGcore_CG_RTGcore_CG] (site ACGGGACCTCT) (LTG core: CG, RTG core: CG)”, the “recombinant barcode read abundance (log10)” value was 0.086.
In the case of “ACGGGACCTTGGGTTCTAACCTGTTGCAGAA [ACGGGACCTCT_LTGcore_CT_RTGcore_TT] (site ACGGGACCTCT) (LTG core: CT, RTG core: TT)”, the “recombinant barcode read abundance (log10)” value was 0.387.
With “ACGGGACCTTGGGTTCTAACCTGTTGCAGCT [ACGGGACCTCT_LTGcore_CT_RTGcore_AG] (site ACGGGACCTCT) (LTG core: CT, RTG core: AG)” the “recombinant barcode read abundance (log10)” value was 1.07.
For “ACGGGACCTTGGGTTCTAACCTGTTGCAGGC [ACGGGACCTCT_LTGcore_CT_RTGcore_GC] (site ACGGGACCTCT) (LTG core: CT, RTG core: GC)”, the “recombinant barcode read abundance (log10)” value was 0.944.
With “ACGGGACTATGGGTTCTAACCTGTTGCAGTA [ACGGGACCTCT_LTGcore_TA_RTGcore_TA] (site ACGGGACCTCT) (LTG core: TA, RTG core: TA)” the “recombinant barcode read abundance (log10)” value was 0.0155.
With “AGGAGGTAATGGGTTCTAACCTGTTGCCTTT [AGGAGGTCTAG_LTGcore_AA_RTGcore_AA] (site AGGAGGTCTAG) (LTG core: AA, RTG core: AA)” the “recombinant barcode read abundance (log10)” value was 0.0693.
In the case of “AGGAGGTAGTGGGTTCTAACCTGTTGCCTCT [AGGAGGTCTAG_LTGcore_AG_RTGcore_AG] (site AGGAGGTCTAG) (LTG core: AG, RTG core: AG)”, the “recombinant barcode read abundance (log10)” value was 0.0957.
In the case of “AGGAGGTATTGGGTTCTAACCTGTTGCCTAG [AGGAGGTCTAG_LTGcore_AT_RTGcore_CT] (site AGGAGGTCTAG) (LTG core: AT, RTG core: CT)”, the “recombinant barcode read abundance (log10)” value was 0.214.
With “AGGAGGTCCTGGGTTCTAACCTGTTGCCTAG [AGGAGGTCTAG_LTGcore_CC_RTGcore_CT] (site AGGAGGTCTAG) (LTG core: CC, RTG core: CT)” the “recombinant barcode read abundance (log10)” value was 0.336.
In the case of “AGGAGGTCGTGGGTTCTAACCTGTTGCCTAG [AGGAGGTCTAG_LTGcore_CG_RTGcore_CT] (site AGGAGGTCTAG) (LTG core: CG, RTG core: CT)”, the “recombinant barcode read abundance (log10)” value was 0.0327.
In the case of “AGGAGGTCTTGGGTTCTAACCTGTTGCCTCC [AGGAGGTCTAG_LTGcore_CT_RTGcore_GG] (site AGGAGGTCTAG) (LTG core: CT, RTG core: GG)”, the “recombinant barcode read abundance (log10)” value was 0.0685.
With “AGGAGGTCTTGGGTTCTAACCTGTTGCCTCT [AGGAGGTCTAG_LTGcore_CT_RTGcore_AG] (site AGGAGGTCTAG) (LTG core: CT, RTG core: AG)” the “recombinant barcode read abundance (log10)” value was 1.02.
With “AGGAGGTCTTGGGTTCTAACCTGTTGCCTGA [AGGAGGTCTAG_LTGcore_CT_RTGcore_TC] (site AGGAGGTCTAG) (LTG core: CT, RTG core: TC)” the “recombinant barcode read abundance (log10)” value was 0.643.
In the case of “AGGAGGTCTTGGGTTCTAACCTGTTGCCTTC [AGGAGGTCTAG_LTGcore_CT_RTGcore_GA] (site AGGAGGTCTAG) (LTG core: CT, RTG core: GA)”, the “recombinant barcode read abundance (log10)” value was 0.107.
In the case of “AGGAGGTGCTGGGTTCTAACCTGTTGCCTAG [AGGAGGTCTAG_LTGcore_GC_RTGcore_CT] (site AGGAGGTCTAG) (LTG core: GC, RTG core: CT)”, the “recombinant barcode read abundance (log10)” value was 0.292.
With “AGGAGGTGCTGGGTTCTAACCTGTTGCCTGC [AGGAGGTCTAG_LTGcore_GC_RTGcore_GC] (site AGGAGGTCTAG) (LTG core: GC, RTG core: GC)” the “recombinant barcode read abundance (log10)” value was 0.911.
With “AGGAGGTTATGGGTTCTAACCTGTTGCCTTA [AGGAGGTCTAG_LTGcore_TA_RTGcore_TA] (site AGGAGGTCTAG) (LTG core: TA, RTG core: TA)” the “recombinant barcode read abundance (log10)” value was 0.209.
With “AGGAGGTTCTGGGTTCTAACCTGTTGCCTAG [AGGAGGTCTAG_LTGcore_TC_RTGcore_CT] (site AGGAGGTCTAG) (LTG core: TC, RTG core: CT)” the “recombinant barcode read abundance (log10)” value was 0.0562.
With “AGGAGGTTTTGGGTTCTAACCTGTTGCCTAA [AGGAGGTCTAG_LTGcore_TT_RTGcore_TT] (site AGGAGGTCTAG) (LTG core: TT, RTG core: TT)” the “recombinant barcode read abundance (log10)” value was 0.218.
With “AGGCCTCATTGGGTTCTAACCTGTTGCCTAT [AGGCCTCCTAG_LTGcore_AT_RTGcore_AT] (site AGGCCTCCTAG) (LTG core: AT, RTG core: AT)” the “recombinant barcode read abundance (log10)” value was 0.0616.
In the case of “AGGCCTCCGTGGGTTCTAACCTGTTGCCTAG [AGGCCTCCTAG_LTGcore_CG_RTGcore_CT] (site AGGCCTCCTAG) (LTG core: CG, RTG core: CT)”, the “recombinant barcode read abundance (log10)” value was 0.0631.
In the case of “AGGCCTCCGTGGGTTCTAACCTGTTGCCTCG [AGGCCTCCTAG_LTGcore_CG_RTGcore_CG] (site AGGCCTCCTAG) (LTG core: CG, RTG core: CG)”, the “recombinant barcode read abundance (log10)” value was 0.0742.
For “AGGCCTCCTTGGGTTCTAACCTGTTGCCTTA [AGGCCTCCTAG_LTGcore_CT_RTGcore_TA] (site AGGCCTCCTAG) (LTG core: CT, RTG core: TA)”, the “recombinant barcode read abundance (log10)” value was 0.635.
For “AGGCCTCGCTGGGTTCTAACCTGTTGCCTAG [AGGCCTCCTAG_LTGcore_GC_RTGcore_CT] (site AGGCCTCCTAG) (LTG core: GC, RTG core: CT)”, the “recombinant barcode read abundance (log10)” value was 0.224.
With “AGGCCTCGGTGGGTTCTAACCTGTTGCCTAG [AGGCCTCCTAG_LTGcore_GG_RTGcore_CT] (site AGGCCTCCTAG) (LTG core: GG, RTG core: CT)” the “recombinant barcode read abundance (log10)” value was 1.04.
For “AGGCCTCTATGGGTTCTAACCTGTTGCCTTA [AGGCCTCCTAG_LTGcore_TA_RTGcore_TA] (site AGGCCTCCTAG) (LTG core: TA, RTG core: TA)”, the “recombinant barcode read abundance (log10)” value was 0.0149.
With “AGGCCTCTGTGGGTTCTAACCTGTTGCCTCA [AGGCCTCCTAG_LTGcore_TG_RTGcore_TG] (site AGGCCTCCTAG) (LTG core: TG, RTG core: TG)” the “recombinant barcode read abundance (log10)” value was 0.186.
For “AGGCGGGAATGGGTTCTAACCTGTTGCGGTT [AGGCGGGCTCC_LTGcore_AA_RTGcore_AA] (site AGGCGGGCTCC) (LTG core: AA, RTG core: AA)”, the “recombinant barcode read abundance (log10)” value was 0.154.
In the case of “AGGCGGGCCTGGGTTCTAACCTGTTGCGGAG [AGGCGGGCTCC_LTGcore_CC_RTGcore_CT] (site AGGCGGGCTCC) (LTG core: CC, RTG core: CT)”, the “recombinant barcode read abundance (log10)” value was 1.48.
For “AGGCGGGCGTGGGTTCTAACCTGTTGCGGAG [AGGCGGGCTCC_LTGcore_CG_RTGcore_CT] (site AGGCGGGCTCC) (LTG core: CG, RTG core: CT)”, the “recombinant barcode read abundance (log10)” value was 2.17.
